Experimental findings from patent US10035810B2, “5,6-dihydro-4H-benzo[b]thieno-[2,3-d]azepine derivative” (PULMOCIDE LIMITED, priority 2014, dated 2018) are described below.

In one assay the test system is RSV B Washington strain. The experiment in a line: RSV B-induced CPE in HEp2 cells. Type of assay: cell-based. As to conditions: human respiratory syncytial virus. The method, then:
(§1) Assessment of RSV Induced CPE in HEp2 Cells
(§2) HEp2 cells were seeded (10^3/well/50 μL) in 384-well plates (Catalogue number 353962, BD Falcon, Oxford, UK) in […] containing 2 mM L-glutamine and 1 mM sodium pyruvate one day before infection. RSV A2 strain (#0709161v, NCPV, Public Health England, Wiltshire) or RSV B Washington strain (VR-1580, ATCC, Manassas, Va. 20108) virus solutions were prepared in serum free-DMEM with 2 mM L-glutamine and 1 mM sodium pyruvate, and then added (50 μL/well) to achieve a final virus concentration of 1 MOI. Simultaneously Compound (I) (0.5 μL DMSO solution) was added to 100 μL of HEp2 cell culture with virus solution to provide a final DMSO solution of 0.5%. Plates were incubated (37° C./5% CO2) for 5 days for studies using RSV A2 strain or 6 days for those using RSV B strain, and then resazurin sodium salt (5 μL of 0.03% solution; Sigma-Aldrich, Dorset, UK) was added to each well and the plate incubated for a further 6 hr (37° C./5% CO2). The fluorescence of each well [545 nm (excitation)/590 nm (emission)] was determined using a multi-scanner (Clariostar: BMG, Buckinghamshire, UK). The percentage inhibition for each well was calculated and the IC50, IC75 and IC90 values were calculated from the concentration-response curve generated for Compound (I).

The subject of another assay is hRSV/A/Long. Description: RSV infection in cotton rats: virus titre in lung homogenate (plaque assay). In kind it is in vivo, cotton rats (Sigmodon hispidus).
In the next assay the test system is RSV A2. The experiment in a line: RSV infection in mice: virus titre in lung homogenate (plaque assay). The note with it: RSV A2 infected mice. In kind it is in vivo, mice (male BALB/C). Here is the method: Non-fasted mice (male BALB/C, 20-30 g) were infected intranasally with RSV A2 or virus diluent (DMEM, 2% FBS, 12.5% sucrose) under isoflurane (5% in O2) anaesthesia. The A2 strain of RSV (50 uL of 1.3×10^6 PFU/mL: final 0.65×10^5 PFU/mouse) was instilled into each nostril in a drop wise fashion alternating between the two until a volume of 50 μL was delivered. Following infection each animal was weighed on a daily basis to monitor changes. Compound (I) was dissolved in 100% DMSO (at 20 mg/mL and/or 2 mg/mL), then diluted at 1:10 in isotonic saline to achieve 10% DMSO in all treatments. Formulations were then sonicated to produce a suspension. The suspension was administered intratracheally (20 μL) with a FMJ-250 PennCentury device or intranasally (40 μL) with a pipette on 1 day and 1 hr before infection (day 0), and then on days 1, 2 and 3 post infection. Four days after RSV challenge, the animals were euthanised (by intraperitoneal injection of a pentobarbitone overdose), the trachea cannulated and BALF extracted for total and differential cell counts. […]
Anti-RSV F-protein antibody [2F7] […] Plaques were counted by eye and confirmed using light microscopy, allowing the calculation of plaque forming units per mL of lung homogenate supernatant.

A further assay relates to RSV A2 strain. The experiment in a line: RSV A2-induced CPE in HEp2 cells. Type of assay: cell-based. The note with it: human respiratory syncytial virus. The method, then: as §1, §2

Each structure is given as a SMILES string.

As usually defined, the IC50 is the midpoint of a concentration-inhibition curve. A lower IC50 goes with greater potency in that assay. The inhibition is the percentage by which the read-out fell short of the control. Turning to `Cc1cnc(N2CC3(CCOCC3)C2)c(C(=O)Nc2ccc(C(=O)N3CCc4cc(C(=O)Nc5c(C)cccc5F)sc4-c4ccccc43)cc2)c1` [Compound (I), N-(2-fluoro-6-methylphenyl)-6-(4-(5-methyl-2-(7-oxa-2-azaspiro[3.5]nonan-2-yl)nicotinamido)benzoyl)-5,6-dihydro-4H-benzo[b]thieno[2,3-d]azepine-2-carboxamide], the IC50 with RSV B Washington strain (HEp-2, 144 h, 1 MOI, 6 days) came to 10.2 nM; in the assay with RSV A2 strain (HEp-2, 120 h, 1 MOI, 5 days), 0.017 nM. The inhibition at 1 µg/mL in the assay with RSV B Washington strain (HEp-2, at 1 μg/mL) came out at 72%. Moreover, the “Virus titre in the lungs (in words)” value in the assay on hRSV/A/Long (RSV A2 infected cotton rats) and in the assay on RSV A2 was “completely inhibited virus titre” in each case. Further, the “Virus titre in lung homogenates (in words)” value in the assay on hRSV/A/Long (infected cotton rats, day 4) is on record as “potent dose-dependent inhibition of virus titre”. The “Viral titre in lung homogenates (in words)” value in the assay on RSV A2 (intranasally or intratracheally) is given as “potent dose-dependent inhibition of viral titre”. Further, at 0.1 µg/mL the inhibition with RSV A2 strain (HEp-2, at 0.1 μg/mL) was 100%.
